From article PMC11013038, “Design, Synthesis, and Evaluation of B-(Trifluoromethyl)phenyl Phosphine–Borane Derivatives as Novel Progesterone Receptor Antagonists” (Molecules, 2024)

Assays:
[1] = molecular target: T1, PR ligand-binding domain (LBD) (Homo sapiens, UniProt P06401); test: PR LBD competitive binding assay (fluorescence polarization, PolarScreen kit); conditions: fluorescence polarization competition, 100 nM to 32 μM, Figure 5
T1 construct: purchased Invitrogen A15905
T1 sequence (P06401 679-913 limits assumed): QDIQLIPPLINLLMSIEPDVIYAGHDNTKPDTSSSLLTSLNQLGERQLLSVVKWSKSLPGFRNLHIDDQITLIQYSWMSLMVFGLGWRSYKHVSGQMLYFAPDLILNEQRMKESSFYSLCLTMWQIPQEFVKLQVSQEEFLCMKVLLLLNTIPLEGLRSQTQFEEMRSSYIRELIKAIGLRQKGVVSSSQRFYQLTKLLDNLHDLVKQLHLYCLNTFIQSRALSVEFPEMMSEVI
Procedure: The PR agonistic and antagonistic activities of the synthesized phosphine–borane derivatives were evaluated using an alkaline phosphatase assay with the T47D human breast cancer cell line. […] The basal alkaline phosphatase activity was also not affected by the tested compounds alone. […] The PR antagonistic activities of the compounds were assessed in the presence of 1 nM of P4 (5). We also calculated the molecular volume of each compound to investigate the structure–activity relationship (SAR). Table 2 summarizes the PR antagonistic activity and calculated volumes of the synthesized compounds. […] We investigated the binding affinity of the compounds toward the PR ligand-binding domain (LBD) using a fluorescence polarization assay system. […] We also investigated the activity of compounds 28 and 34 toward the androgen receptor (AR) by means of cell-proliferation promoting/inhibitory activity toward androgen-dependent SC-3 cells. […].
PR binding affinity was assessed using a PolarScreen Progesterone Receptor Competitor Assay Kit, Green (Invitrogen, Waltham, MA, USA, A15905) based on the manufacturer’s instruction. […] The fluorescence polarization value (mP) was measured at 485 nm/535 nm (excitation/emission) on a DTX 880 Multimode Detector (Beckman Coulter).

androgen receptor (AR) [2] = molecular target: T2, androgen receptor (AR) (Mus musculus, UniProt P19091); test: SC-3 cell proliferation assay, AR agonistic activity (compound alone); assay type: cell-based, murine; conditions: for EC50: SC-3 cells, induction of cell proliferation by single treatment of the compound, 0.01 μM to 10 μM, read-out: EC50 (agonist); for effect on SC-3 cell growth in the absence of dihydrotestosterone (AR agonistic activity): androgen-dependent SC-3 cells
T2 construct: SC-3 cells were cultured in MEMα (Fujifilm Wako Co.) supplemented with 2 %; endogenous in cells; host or cells: SC-3
T2 sequence (P19091 1-899): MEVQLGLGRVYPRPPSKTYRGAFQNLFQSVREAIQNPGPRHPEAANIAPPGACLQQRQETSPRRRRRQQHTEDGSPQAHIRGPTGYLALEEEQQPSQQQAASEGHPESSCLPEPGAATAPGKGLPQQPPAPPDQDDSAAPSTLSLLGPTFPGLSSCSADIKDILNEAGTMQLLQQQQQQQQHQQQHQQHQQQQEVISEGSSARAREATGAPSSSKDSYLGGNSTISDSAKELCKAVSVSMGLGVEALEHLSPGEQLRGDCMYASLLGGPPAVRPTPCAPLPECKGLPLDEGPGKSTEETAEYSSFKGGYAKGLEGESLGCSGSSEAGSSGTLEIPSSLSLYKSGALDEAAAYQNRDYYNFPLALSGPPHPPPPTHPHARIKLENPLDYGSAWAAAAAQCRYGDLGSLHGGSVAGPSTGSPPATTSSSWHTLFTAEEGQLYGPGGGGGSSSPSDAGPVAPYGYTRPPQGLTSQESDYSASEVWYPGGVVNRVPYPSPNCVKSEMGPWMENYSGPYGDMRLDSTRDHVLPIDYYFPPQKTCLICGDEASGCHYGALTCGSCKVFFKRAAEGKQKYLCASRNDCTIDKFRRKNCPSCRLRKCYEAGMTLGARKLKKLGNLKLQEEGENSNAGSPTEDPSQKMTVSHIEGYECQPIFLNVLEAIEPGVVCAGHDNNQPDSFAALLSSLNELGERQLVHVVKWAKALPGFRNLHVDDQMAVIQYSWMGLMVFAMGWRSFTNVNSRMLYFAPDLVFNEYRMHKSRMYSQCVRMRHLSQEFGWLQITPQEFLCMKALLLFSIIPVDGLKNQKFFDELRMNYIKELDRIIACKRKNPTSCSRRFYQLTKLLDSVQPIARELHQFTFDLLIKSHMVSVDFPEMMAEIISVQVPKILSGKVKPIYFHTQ

androgen receptor (AR) [3] = molecular target: T2, androgen receptor (AR); test: SC-3 cell proliferation assay, AR antagonistic activity (1 nM DHT-promoted proliferation); assay type: cell-based, murine; conditions: for effect on SC-3 cell growth in the presence of dihydrotestosterone (AR antagonistic activity): androgen-dependent SC-3 cells; for IC50: read-out: IC50 (antagonist)

EC50 (androgen receptor (AR) [2])	effect on SC-3 cell growth in the absence of dihydrotestosterone (AR agonistic activity) (androgen receptor (AR) [2])	effect on SC-3 cell growth in the presence of dihydrotestosterone (AR antagonistic activity) (androgen receptor (AR) [3])	IC50 (androgen receptor (AR) [3])	melting point	SMILES	binding affinity toward PR LBD (in words) [1]
> 10 µM	did not affect cell growth	did not affect cell growth	> 10 µM		C[P+](C)(C)[BH2-]c1ccc(C(F)(F)F)cc1 [Compound 28, B-4-(Trifluoromethyl)phenyl Trimethylphosphine–Borane]	did not show the affinity
> 10 µM	did not affect cell growth	did not affect cell growth	> 10 µM	72.6 to 72.8 °C	FC(F)(F)c1ccc([BH2-][P+](C2CC2)(C2CC2)C2CC2)cc1 [Compound 34, B-4-(Trifluoromethyl)phenyl Tricyclopropylphosphine–Borane]	exhibited significant affinity toward PR LBD
